Where two headings read alike, the source gives them in different places.
Test system: H460 (NRF2 pathway mutant cell line with high AKR1C3 expression)
Assay: In vitro cell proliferation assay (CellTiter-Glo), H460
Assay type: cell-based
Conditions: Homo sapiens, NCI-H460, 72 h, read-out: H460 Qualified absolute AC50
Excerpt: Cellular Proliferation Assay to Assess Compounds Activity in H460 (NRF2 Pathway Mutant Cell Line with High AKR1C3 Expression) and Hara (NRF2 Pathway Wild Type Cell Line with Low AKR1C3 Expression).
The cell lines A549 and H460 are NRF2 pathway mutant and specifically contain genetic alterations in KEAP1 (A549: G333C, H460: D236H) (Singh A. et al., 2006 PLoS Medicine 3(10) e420). In these cell lines the NRF2 pathway is constitutively active and these cells express high levels of NRF2 protein and NRF2 pathway target gene AKR1C3. […] They have low AKR1C3 expression.
In Vitro Cell Proliferation Assay
Day 1, for H460 800 cells/well or 40 μL of 2×10^4 cells/mL and for Hara 2000 cells/well or 40 μL of 5×10^4 cells/mL medium (RPMI-1640 supplemented with 10% fetal bovine serum and 1% penicillin/streptomycin) were seeded into 384-well tissue culture plates. Day 2, compounds were serially diluted 1:5 to generate 8 point dose response curves and added to cells for a final top concentration of 10 μM. DMSO (1%) control and MG132 (30 μM) controls are added in columns 23 and 24 respectively on each plate for positive and negative control. After incubation for 3 days at 37° C./5% CO2, 30 μl of CellTiter-Glo reagent (Promega) was added and the plates were incubated for 10 min on plate shaker. The amount of luminescence was determined using a Perkin Elmer Envision plate reader. CellTiter-Glo luminescence values of cells treated with DMSO and MG132 controls were used to normalize the data and calculate percentage activity and AC50s of compounds using the Helios Software suite.

[1] = H460 cells, 3 days, CellTiter-Glo, top concentration 10 μM

CN1c2ccc(F)cc2C(=O)CC12CCN(C(=O)NCc1ccc(F)c(NCCC(=O)O)c1)CC2 [Example 148, 3-((2-fluoro-5-((6′-fluoro-1′-methyl-4′-oxo-3′,4′-dihydro-1′H-spiro[piperidine-4,2′-quinoline]-1-carboxamido)methyl)phenyl)amino)propanoic acid]
AC50 [1]: 4930 nM

Cc1ccc(CNC(=O)N2CCC3(CC2)CC(=O)c2cc(F)ccc2N3)o1 [Example 1, 6′-fluoro-N-((5-methylfuran-2-yl)methyl)-4′-oxo-3′,4′-dihydro-1′H-spiro[piperidine-4,2′-quinoline]-1-carboxamide]
AC50 [1]: 143 nM

Cc1ncc(CNC(=O)c2cc(CNC(=O)N3CCC4(CC3)CC(=O)c3cc(F)ccc3N4)ccc2F)o1 [Example 121, 6′-fluoro-N-(4-fluoro-3-(((2-methyloxazol-5-yl)methyl)carbamoyl)benzyl)-4′-oxo-3′,4′-dihydro-1′H-spiro[piperidine-4,2′-quinoline]-1-carboxamide]
AC50 [1]: 1080 nM

Cc1cc(CNC(=O)N2CCC3(CC2)CC(=O)c2cc(F)ccc2N3)n[nH]1 [Example 72, 6′-fluoro-N-((5-methyl-1H-pyrazol-3-yl)methyl)-4′-oxo-3′,4′-dihydro-1′H-spiro[piperidine-4,2′-quinoline]-1-carboxamide]
AC50 [1]: 282 nM

O=C1CC2(CCN(C(=O)NCc3ccc(Cl)o3)CC2)Nc2ccc(F)cc21 [Example 22, N-((5-chlorofuran-2-yl)methyl)-6′-fluoro-4′-oxo-3′,4′-dihydro-1′H-spiro[piperidine-4,2′-quinoline]-1-carboxamide]
AC50 [1]: 37 nM

CN1c2ccc(F)cc2C(=O)CC12CCN(C(=O)NCc1ccc(F)c(NCC(C)(C)C(=O)N3CCOCC3)c1)CC2 [Example 113]
AC50 [1]: 846 nM

Cc1c(CNC(=O)N2CCC3(CC2)CC(=O)c2cc(F)ccc2N3)ccc(F)c1C(N)=O [Example 79, N-(3-carbamoyl-4-fluoro-2-methylbenzyl)-6′-fluoro-4′-oxo-3′,4′-dihydro-1′H-spiro[piperidine-4,2′-quinoline]-1-carboxamide]
AC50 [1]: 345 nM

Cc1occc1CNC(=O)N1CCC2(CC1)CC(=O)c1cc(F)ccc1N2 [Example 59, 6′-fluoro-N-((2-methylfuran-3-yl)methyl)-4′-oxo-3′,4′-dihydro-1′H-spiro[piperidine-4,2′-quinoline]-1-carboxamide]
AC50 [1]: 185 nM

CCc1noc(C)c1CNC(=O)N1CCC2(CC1)CC(=O)c1cc(F)ccc1N2 [Example 106, N-((3-ethyl-5-methylisoxazol-4-yl)methyl)-6′-fluoro-4′-oxo-3′,4′-dihydro-1′H-spiro[piperidine-4,2′-quinoline]-1-carboxamide]
AC50 [1]: 598 nM

COCCNC(=O)c1cc(CNC(=O)N2CCC3(CC2)CC(=O)c2cc(F)ccc2N3C)ccc1F [Example 58, 6′-fluoro-N-(4-fluoro-3-((2-methoxyethyl)carbamoyl)benzyl)-1′-methyl-4′-oxo-3′,4′-dihydro-1′H-spiro[piperidine-4,2′-quinoline]-1-carboxamide]
AC50 [1]: 181 nM

CN1c2ccc(F)cc2C(=O)CC12CCN(C(=O)NCc1ccc(F)c(NCCN3CCCC3=O)c1)CC2 [Example 90, 6′-fluoro-N-(4-fluoro-3-((2-(2-oxopyrrolidin-1-yl)ethyl)amino)benzyl)-1′-methyl-4′-oxo-3′,4′-dihydro-1′H-spiro[piperidine-4,2′-quinoline]-1-carboxamide]
AC50 [1]: 443 nM

O=C1CC2(CCN(C(=O)NCc3ccc(OP(=O)(O)O)cc3)CC2)Nc2ccc(F)cc21 [Example 4, 4-((6′-fluoro-4′-oxo-3′,4′-dihydro-1′H-spiro[piperidine-4,2′-quinoline]-1-carboxamido)methyl)phenyl dihydrogen phosphate]
AC50: 6 nM

CC(O)CNC(=O)c1cc(CNC(=O)N2CCC3(CC2)CC(=O)c2cc(F)ccc2N3C)ccc1F (racemic) [Example 88, 6′-fluoro-N-(4-fluoro-3-((2-hydroxypropyl)carbamoyl)benzyl)-1′-methyl-4′-oxo-3′,4′-dihydro-1′H-spiro[piperidine-4,2′-quinoline]-1-carboxamide]
AC50 [1]: 421 nM

Cc1coc(C)c1CNC(=O)N1CCC2(CC1)CC(=O)c1cc(F)ccc1N2 [Example 34, N-((2,4-dimethylfuran-3-yl)methyl)-6′-fluoro-4′-oxo-3′,4′-dihydro-1′H-spiro[piperidine-4,2′-quinoline]-1-carboxamide]
AC50 [1]: 75 nM

CN1CCN(C(=O)C(C)(C)CNc2cc(CNC(=O)N3CCC4(CC3)CC(=O)c3cc(F)ccc3N4C)ccc2F)CC1 [Example 44, N-(3-((2,2-dimethyl-3-(4-methylpiperazin-1-yl)-3-oxopropyl)amino)-4-fluorobenzyl)-6′-fluoro-1′-methyl-4′-oxo-3′,4′-dihydro-1′H-spiro[piperidine-4,2′-quinoline]-1-carboxamide]
AC50 [1]: 99 nM

O=C1CC2(CCN(C(=O)NCc3ccoc3C(F)(F)F)CC2)Nc2ccc(F)cc21 [Example 96, 6′-fluoro-4′-oxo-N-((2-(trifluoromethyl)furan-3-yl)methyl)-3′,4′-dihydro-1′H-spiro[piperidine-4,2′-quinoline]-1-carboxamide]
AC50 [1]: 489 nM

O=C(NCc1ccc(CO)cc1)c1cc(CNC(=O)N2CCC3(CC2)CC(=O)c2cc(F)ccc2N3)ccc1F [Example 32, 6′-fluoro-N-(4-fluoro-3-((4-(hydroxymethyl)benzyl)carbamoyl)benzyl)-4′-oxo-3′,4′-dihydro-1′H-spiro[piperidine-4,2′-quinoline]-1-carboxamide]
AC50 [1]: 64 nM

CN1c2ccc(F)cc2C(=O)CC12CCN(C(=O)NCc1ccc(F)c(C(=O)NCC(C)(C)O)c1)CC2 [Example 97, 6′-fluoro-N-(4-fluoro-3-((2-hydroxy-2-methylpropyl)carbamoyl)benzyl)-1′-methyl-4′-oxo-3′,4′-dihydro-1′H-spiro[piperidine-4,2′-quinoline]-1-carboxamide]
AC50 [1]: 491 nM

C#CCNC(=O)c1cc(CNC(=O)N2CCC3(CC2)CC(=O)c2cc(F)ccc2N3)ccc1F [Example 128, 6′-fluoro-N-(4-fluoro-3-(prop-2-yn-1-ylcarbamoyl)benzyl)-4′-oxo-3′,4′-dihydro-1′H-spiro[piperidine-4,2′-quinoline]-1-carboxamide]
AC50 [1]: 1480 nM

Nc1ccc(CNC(=O)N2CCC3(CC2)C[C@H](O)c2cc(F)ccc2N3)cc1F (single isomer, unassigned) [Example 170b]
AC50 [1]: ≥ 17300 nM

O=C(NC/C=C/CO)c1cc(CNC(=O)N2CCC3(CC2)CC(=O)c2cc(F)ccc2N3)ccc1F [Example 122, (E)-6′-fluoro-N-(4-fluoro-3-((4-hydroxybut-2-en-1-yl)carbamoyl)benzyl)-4′-oxo-3′,4′-dihydro-1′H-spiro[piperidine-4,2′-quinoline]-1-carboxamide]
AC50 [1]: 1110 nM

O=C(NC1CC(O)C1)c1cc(CNC(=O)N2CCC3(CC2)CC(=O)c2cc(F)ccc2N3)ccc1F (centres unmarked) [Example 60, 6′-fluoro-N-(4-fluoro-3-((3-hydroxycyclobutyl)carbamoyl)benzyl)-4′-oxo-3′,4′-dihydro-1′H-spiro[piperidine-4,2′-quinoline]-1-carboxamide]
AC50 [1]: 198 nM

Cc1occc1CNC(=O)N1CCC2(CC1)C[C@@H](O)c1cc(F)ccc1N2 (single isomer, unassigned) [Example 169]
AC50 [1]: 8 nM

Reference: US11970497B2, “Tricyclic AKR1C3 dependent KARS inhibitors” (Novartis AG, priority 2019, dated 2024)
